According to PMC4519900 (International Journal of Molecular Sciences, 2015):
Like-named read-outs stand apart in the source and are kept apart here.

Tests used:
[1] = target: T1, A. suum QFR (complex II) (Ascaris suum, UniProt O44074+P92506+P92507); details: read-out: IC50 for A. suum QFR; cited from earlier work
T1 construct: from tissue; host or cells: adult Ascaris suum muscle, mitochondrial fraction

[2] = system: bovine SQR; set-up: method as in PMID 3209470, PMID 12515859, PMID 19242645; details: cited from earlier work
[3] = target: T1, A. suum QFR (complex II); assay: SQR activity assay of A. suum complex II (QFR) in mitochondrial fraction, UQ2 consumption at 278 nm; type: biochemical
Description: (§1) The CP buffer containing the prepared mitochondrial fraction was replaced with 50 mM Tris–HCl buffer, pH 7.4 containing 1 mM disodium malonate, 210 mM mannitol, 10 mM sucrose, and 1 mM EDTA. Final concentrations of the A. suum and porcine mitochondria (quantified protein) were adjusted to 10 and 20 mg/mL, respectively. Mitochondrial fractions were separated in 50 μL aliquots, frozen by liquid nitrogen and stored at 193 K until use. Prior to assay, the mitochondrial suspensions were thawed on ice and SQR was reactivated by incubation at 298 K for 30 min in equal volume of 50 mM potassium phosphate buffer pH 7.4, containing 337 μM disodium malonate. SQR assay buffer composed of 50 mM potassium phosphate buffer pH 7.4, 0.1% SML, 2 mM potassium cyanide, and 60 μM of 2,3-dimethoxy-5-methyl-6-geranyl-1,4-benzoquinone (UQ2) was pre-equilibrated at 298 K for 20 min. The assay mixture was constituted by adding 15 μg (A. suum) or 30 μg (porcine) of reactivated mitochondrial fraction to the assay buffer and incubated for 3 min for background activity measurements. The SQR activity was initiated by the addition of 10 mM disodium succinate, and recorded as rate of UQ2 consumption, monitored at 278 nm (ε278 = 15 mM^−1·cm^−1) for three minutes in 1 mL quartz cuvettes with a Shimadzu UV-3000 dual wavelength spectrophotometer (Shimazu, Kyoto, Japan). Inhibition of SQR activities were assayed in the presence of varying concentration of inhibitors (diluted in DMSO) and the IC50s calculated as the concentration of inhibitor that caused 50% decrease in SQR activity relative to control (DMSO).

[4] = target: T2, porcine SQR (complex II) (Sus scrofa, UniProt A5GZW8+D0VWV4+Q007T0); assay: SQR activity assay of porcine complex II in mitochondrial fraction, UQ2 consumption at 278 nm; type: biochemical
T2 construct: from tissue; host or cells: porcine heart muscle, mitochondrial fraction
T2 sequence (Q007T0 29-280): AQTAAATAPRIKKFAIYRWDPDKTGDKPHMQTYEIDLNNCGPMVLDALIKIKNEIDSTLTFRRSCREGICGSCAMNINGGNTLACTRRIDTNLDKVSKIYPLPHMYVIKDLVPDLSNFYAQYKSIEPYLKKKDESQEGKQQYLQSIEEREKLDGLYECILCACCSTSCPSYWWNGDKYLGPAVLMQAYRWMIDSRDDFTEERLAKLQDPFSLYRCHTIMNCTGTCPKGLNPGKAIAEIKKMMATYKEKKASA
T2 sequence (D0VWV4 30-169): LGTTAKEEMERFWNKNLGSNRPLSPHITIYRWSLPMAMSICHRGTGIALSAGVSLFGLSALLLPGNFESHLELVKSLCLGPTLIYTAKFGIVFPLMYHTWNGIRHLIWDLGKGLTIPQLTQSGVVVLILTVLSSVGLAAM
T2 sequence (A5GZW8 57-159 limits assumed): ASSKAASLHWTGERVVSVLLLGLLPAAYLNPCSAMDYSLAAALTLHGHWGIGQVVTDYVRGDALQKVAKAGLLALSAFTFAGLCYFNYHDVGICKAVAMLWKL
T2 sequence (Q0QF01 43-664 partner): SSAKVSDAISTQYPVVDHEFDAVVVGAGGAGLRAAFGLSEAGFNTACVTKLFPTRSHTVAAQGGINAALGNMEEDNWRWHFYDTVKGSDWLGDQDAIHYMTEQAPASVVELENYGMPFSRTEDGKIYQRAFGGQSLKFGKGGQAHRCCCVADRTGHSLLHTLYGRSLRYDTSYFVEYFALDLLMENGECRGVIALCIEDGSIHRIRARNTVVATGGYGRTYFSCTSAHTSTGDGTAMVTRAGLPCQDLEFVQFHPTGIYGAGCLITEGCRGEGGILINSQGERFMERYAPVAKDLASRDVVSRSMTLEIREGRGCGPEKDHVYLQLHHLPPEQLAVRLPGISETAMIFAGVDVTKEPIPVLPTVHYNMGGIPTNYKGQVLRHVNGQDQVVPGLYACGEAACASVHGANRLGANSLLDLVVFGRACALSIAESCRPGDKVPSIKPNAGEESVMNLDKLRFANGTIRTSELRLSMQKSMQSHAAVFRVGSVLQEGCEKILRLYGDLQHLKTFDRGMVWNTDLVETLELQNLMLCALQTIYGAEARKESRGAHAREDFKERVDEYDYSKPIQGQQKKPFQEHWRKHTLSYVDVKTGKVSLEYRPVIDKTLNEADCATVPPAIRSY
Description: as §1

[5] = porcine complex II, SQR assay, 298 K, pH 7.4, read-out: IC50 (SQR)

T1 sequence (Q33862 19-645): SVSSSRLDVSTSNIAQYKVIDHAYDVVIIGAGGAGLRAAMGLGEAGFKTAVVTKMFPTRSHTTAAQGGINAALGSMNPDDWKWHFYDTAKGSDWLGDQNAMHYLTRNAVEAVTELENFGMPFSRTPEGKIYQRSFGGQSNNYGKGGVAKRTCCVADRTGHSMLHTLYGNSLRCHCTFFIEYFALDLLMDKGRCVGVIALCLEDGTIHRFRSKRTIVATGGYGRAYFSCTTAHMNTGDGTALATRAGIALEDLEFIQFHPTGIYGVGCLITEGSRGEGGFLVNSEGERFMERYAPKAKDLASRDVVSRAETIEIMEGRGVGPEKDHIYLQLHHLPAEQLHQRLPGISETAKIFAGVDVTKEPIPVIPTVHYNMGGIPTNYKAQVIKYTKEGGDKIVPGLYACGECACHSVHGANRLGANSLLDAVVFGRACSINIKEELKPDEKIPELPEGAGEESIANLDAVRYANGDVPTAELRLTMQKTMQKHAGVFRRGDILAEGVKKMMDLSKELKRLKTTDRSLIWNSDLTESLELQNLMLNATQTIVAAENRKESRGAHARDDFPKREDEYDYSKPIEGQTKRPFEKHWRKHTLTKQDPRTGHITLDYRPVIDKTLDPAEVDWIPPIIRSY
T1 sequence (P92507 26-156): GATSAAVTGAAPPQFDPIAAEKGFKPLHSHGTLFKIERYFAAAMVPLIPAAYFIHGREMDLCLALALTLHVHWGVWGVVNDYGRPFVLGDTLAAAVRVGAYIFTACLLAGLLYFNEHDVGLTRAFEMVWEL
T1 sequence (P92506 32-188): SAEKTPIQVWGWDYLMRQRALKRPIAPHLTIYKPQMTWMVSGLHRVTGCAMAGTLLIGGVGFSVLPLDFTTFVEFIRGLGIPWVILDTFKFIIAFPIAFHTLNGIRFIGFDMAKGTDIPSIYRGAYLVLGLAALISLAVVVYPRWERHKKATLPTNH
T1 sequence (O44074 22-282): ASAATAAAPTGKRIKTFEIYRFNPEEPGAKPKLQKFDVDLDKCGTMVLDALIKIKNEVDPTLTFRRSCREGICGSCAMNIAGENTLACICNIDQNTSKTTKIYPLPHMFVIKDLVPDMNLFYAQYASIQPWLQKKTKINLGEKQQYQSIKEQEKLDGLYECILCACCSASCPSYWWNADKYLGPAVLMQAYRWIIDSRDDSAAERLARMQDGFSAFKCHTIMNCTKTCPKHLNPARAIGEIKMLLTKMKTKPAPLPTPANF

Compound	IC50 [3]	IC50 [4, 5]	also measured
COc1[nH]c(=O)c(C(=O)[C@@H](C)C[C@H](C)[C@@H](Cl)CCl)c(O)c1OC [Atpenin A5]	–	–	IC50 [1]: 12 nM; IC50 [2]: 3.6 nM
CC(C)Oc1cccc(NC(=O)c2ccccc2I)c1 [derivative 1]	72.3 nM	6430 nM	–
CC(C)Oc1cccc(NC(=O)c2ccccc2C(F)(F)F)c1 [flutolanil, N-[3-(isopropyloxy)phenyl]-2-(trifluoromethyl)benzamide, reference compound]	58.1 nM	–	IC50 ([3]; IC50 (QFR), A. suum complex II, SQR assay, 298 K, pH 7.4): 58 nM; IC50 [4]: 45900 nM
O=C(NCc1ccc(Cl)cc1Cl)c1ccccc1C(F)(F)F [NN28]	28 nM	–	IC10 against porcine SQR ([4]; porcine complex II, SQR assay): > 90000 nM
CC(C)(C)c1ccc(CNC(=O)c2ccccc2C(F)(F)F)cc1 [NN23]	5.5 nM	111000 nM	selectivity index (IC50 porcine SQR / IC50 A. suum QFR) ([3]; A. suum QFR versus porcine SQR): about 20,000 folds
CN(C)Cc1cccc(NC(=O)c2ccccc2C(F)(F)F)c1 [derivative 3]	3420 nM	256000 nM	increase of IC50 for A. suum QFR relative to flutolanil [3]: 59 fold; increase of IC50 for porcine SQR relative to flutolanil ([4]; versus flutolanil): 6 fold
O=C(Nc1cccc(Oc2ccccc2)c1)c1ccccc1C(F)(F)F [derivative 4]	79.4 nM	16200 nM	–
O=C(Nc1cccc(Oc2c(F)c(F)c(F)c(F)c2F)c1)c1ccccc1C(F)(F)F [derivative 6]	330 nM	236000 nM	–
Cc1ccccc1C(=O)Nc1cccc(OC(C)C)c1 [derivative 2]	515 nM	90000 nM	–
O=C(Nc1cccc(-c2ccccc2)c1)c1ccccc1C(F)(F)F [derivative 5]	24.5 nM	8610 nM	–
